Measured values: article PMC4992173, “Divergent synthesis and identification of the cellular targets of deoxyelephantopins” (Nature Communications, 2016)

Target: T1, Nucleoporin p54 (NUP54) (Homo sapiens, UniProt Q7Z3B4)
T1 construct: endogenous in cells; host or cells: MCF7
Assay: In situ competitive profiling in live MCF7 cells (LFQ): NUP54
Assay type: cell-based
Conditions: protein NUP54, 4 h, then 10 µM 24c, n=4
Source text: In our efforts to determine the direct molecular targets of deoxyelephantopin we first performed a gel-based competitive in situ proteomic profiling assay[41] […] While the greater conformational flexibility of probe 24c could potentially lead to more promiscuous target engagement relatively to deoxyelephantopin, it was favoured based on the fact that an alkyne moiety appended to the rigid scaffold of deoxyelephantopin may hinder some of its interactions. MCF7 cells were pretreated with various concentrations of deoxyelephantopin for 4 h, harvested, lysed and the lysates were treated with the fluorogenic probe 24c-Cy3 (10 μM; Supplementary Fig. 10). […] Furthermore, cells were pretreated with 20 μM concentration of deoxyelephantopin or 24c and the proteomic profiles were compared (Fig. 6b, Supplementary Fig. 11). Multiple bands were detected that were equally competed by both DEP and 24c, thus again confirming that 24c can be used as an acceptable clickable analogue of deoxyelephantopin in pulldown assays. Having established the optimal labelling conditions by SDS–PAGE, we next carried out a mass spectrometry-based competitive profiling assay[42] coupled with the method of stable isotope labelling of amino acids in culture (SILAC)[43]. […]
Figure 6 Proteome-wide identification of deoxyelephantopin targets. […] Quantification was performed using label-free quantification (LFQ) method (n=4). […]

T1 sequence (Q7Z3B4 whole entry): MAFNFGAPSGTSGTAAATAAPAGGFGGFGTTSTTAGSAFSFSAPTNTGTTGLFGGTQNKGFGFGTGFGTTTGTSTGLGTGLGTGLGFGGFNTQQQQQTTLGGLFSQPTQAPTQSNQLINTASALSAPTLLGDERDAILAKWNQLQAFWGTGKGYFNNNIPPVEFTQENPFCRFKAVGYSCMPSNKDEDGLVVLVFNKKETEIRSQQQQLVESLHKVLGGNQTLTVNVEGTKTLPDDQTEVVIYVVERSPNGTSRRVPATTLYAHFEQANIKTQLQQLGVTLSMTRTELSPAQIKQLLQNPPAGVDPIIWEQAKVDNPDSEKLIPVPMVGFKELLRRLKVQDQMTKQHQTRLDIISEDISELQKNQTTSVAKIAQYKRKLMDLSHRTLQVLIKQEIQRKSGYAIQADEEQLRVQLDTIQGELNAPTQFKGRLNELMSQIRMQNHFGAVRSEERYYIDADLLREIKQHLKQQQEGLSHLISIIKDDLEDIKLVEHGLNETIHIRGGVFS

SMILES: C=C(C)C(=O)O[C@H]1CC2=C[C@@H](C/C(C)=C/[C@H]3OC(=O)C(=C)[C@H]13)OC2=O [deoxyelephantopin]
- LFQ ratio 20 µM Deoxyelephantopin/DMSO with 24c: 0.24
